Laboratory results taken from patent US11311513B2, “Methods, agents, and compositions for the treatment of acute myeloid leukemia” (UNIVERSITY OF CINCINNATI, priority 2017, dated 2022).

Tested on: STAT3 and STAT5 phosphorylation
Assay: Western blotting of STAT phosphorylation in MONOMAC-6 cells
Format: cell-based
Conditions: 250 nM, 0 min to 24 hrs
Description: FIG. 10. […] Relative cell viabilities are shown. […] Levels of TET1 transcripts are shown. […] (e-h) MONOMAC-6, THP-1 and NB4 cells were transfected with control siRNA (siNC), siSTAT3, or siSTAT5. Expression levels of STAT5 (e), STAT3 (f), TET2 (g) and TET3 (h) were detected by qPCR 48 hrs post-transfection. (i) THP-1 cells were transfected with control siRNA (siNC), siTET1, siJAK1 or siSTAT5. Gene expression levels were detected by qPCR 48 hrs post-transfection. […] (j) ChIP-qPCR assay was carried out 48 hrs after drug treatment. Enrichment of TET1 or IgG at the JAK1 promoter region and other regions are shown. […] Protein levels were detected thereafter. […] Expression levels of TET1, HIF2 a, IL2RA and FRA2 (1) were detected through qPCR. The enrichment of STAT5 on the promoters of TET1 (Site 2; CpG), HIF2a, IL2RA and FRA2 (m) was determined through ChIP-qPCR assays. *, P<0.05; **, P<0.01, two-tailed t-test. Error bar indicates SD of triplicate experiments.
Cells were washed twice with ice-cold phosphate-buffered saline (PBS) and ruptured with RIPA buffer (Pierce, Rockford, Ill.) containing 5 mM EDTA, PMSF, cocktail inhibitor, and phosphatase inhibitor cocktail. Cell extracts were microcentrifuged for 20 min at 10,000 g and supernatants were collected. Cell lysates were resolved by SDS-PAGE and transferred onto PVDF membranes. […]

Compound: COc1cc(C(c2cc3c(cc2O)OCO3)N2CCCC2)cc(OC)c1OC (stereo not shown) [NSC-370284, 6-(1-Pyrrolidinyl(3,4,5-trimethoxyphenyl)methyl)-1,3-benzodioxol-5-ol]
- levels of STAT3 and STAT5 phosphorylation: no significant alterations
